Experimental findings from article PMC8001788, “Decursin Alleviates Mechanical Allodynia in a Paclitaxel-Induced Neuropathic Pain Mouse Model” (Cells, 2021) are described below.

The experiment addresses transient receptor potential vanilloid 1 (TRPV1) (Homo sapiens, UniProt Q8NER1). The experiment can be described thus: Fura-2 calcium imaging of capsaicin-induced Ca2+ in human TRPV1 stable HEK293 cells. It is filed as cell-based.

In general, IC50 refers to the concentration needed to halve the response being measured.

SMILES strings stand for the structures.

Chain of transient receptor potential vanilloid 1 (TRPV1) (Q8NER1 whole entry): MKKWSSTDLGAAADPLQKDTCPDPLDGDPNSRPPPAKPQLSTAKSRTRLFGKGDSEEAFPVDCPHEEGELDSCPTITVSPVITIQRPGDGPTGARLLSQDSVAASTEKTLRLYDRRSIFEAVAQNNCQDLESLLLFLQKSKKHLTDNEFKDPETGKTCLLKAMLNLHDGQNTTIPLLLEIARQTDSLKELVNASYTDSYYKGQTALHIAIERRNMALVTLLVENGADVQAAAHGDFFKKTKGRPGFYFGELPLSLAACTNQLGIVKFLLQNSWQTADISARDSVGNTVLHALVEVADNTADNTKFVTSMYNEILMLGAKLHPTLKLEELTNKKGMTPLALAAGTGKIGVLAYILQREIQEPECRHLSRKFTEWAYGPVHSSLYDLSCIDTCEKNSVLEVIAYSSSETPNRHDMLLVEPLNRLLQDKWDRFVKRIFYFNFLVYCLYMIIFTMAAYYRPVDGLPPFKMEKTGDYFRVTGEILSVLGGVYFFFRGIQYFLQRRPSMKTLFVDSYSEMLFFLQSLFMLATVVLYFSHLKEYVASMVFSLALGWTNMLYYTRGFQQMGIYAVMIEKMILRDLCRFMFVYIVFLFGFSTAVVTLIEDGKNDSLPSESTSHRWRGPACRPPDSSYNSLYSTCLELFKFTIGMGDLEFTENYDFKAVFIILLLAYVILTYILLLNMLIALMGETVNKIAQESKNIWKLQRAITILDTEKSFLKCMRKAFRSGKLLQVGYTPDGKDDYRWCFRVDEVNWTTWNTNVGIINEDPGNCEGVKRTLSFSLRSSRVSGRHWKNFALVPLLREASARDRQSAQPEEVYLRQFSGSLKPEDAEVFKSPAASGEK

On to `CC(C)=CC(=O)O[C@H]1Cc2cc3ccc(=O)oc3cc2OC1(C)C` [decursin], for which the IC50 was 690 ± 105 nM.
